Measured values published in publication PMC8991960, “A Bivalent Activatable Fluorescent Probe for Screening and Intravital Imaging of Chemotherapy‐Induced Cancer Cell Death” (Angewandte Chemie (International Ed. in English), 2021).

Columns and labels:
8 cancer cell lines = assay: Classification of drugs by Apotracker Red (apoptosis) and CellTrace Violet (proliferation) staining; assay type: cell-based; details: 8 cell lines, 24 h treatment, single-dose screen
Description: To corroborate the versatility of Apotracker Red, we built a screening platform including a total of 8 cancer cell lines of variable origin and pathogenesis: breast (MCF7, MDA‐MB231 and MMTV‐PyMT (mouse mammary tumour virus‐polyoma middle tumour‐antigen)[23]), lung (A549), prostate (PC3 and LnCap), blood cells (Jurkat) and colon (HT29). All cell lines were cultured under standard conditions and seeded with the fluorescent proliferation marker CellTrace^TM Violet (CV) in 96‐well plates (10–20×10^3 cells/well) for high‐throughput flow cytometry. After drug treatment (i.e., drug addition plus 24 h incubation), Apotracker Red was incubated for 10 min and fluorescence readings were directly acquired without any additional processing steps (Figure 3 a). […] Using this platform, we tested a collection of FDA‐approved drugs in all cancer cell lines and compared their ability to induce apoptosis using Apotracker Red as the reporter. Specifically, we included DNA alkylation agents (e.g., cyclophosphamide, cisplatin, 5‐fluorouracil, gemcitabine, temozolomide), proteasomal and mitotic inhibitors (e.g., bortezomib, docetaxel, paclitaxel) and antagonists of specific proteins (e.g., dexamethasone, tamoxifen; Figure 3 b).
(§1) First, all drugs were tested in the 8 different cell lines to determine the percentages of Apotracker Red‐stained apoptotic cells compared to no treatment (Figure 3 c; Figure S8). […] All 5 drugs were tested at multiple concentrations (from 1 to 100 μM) and with incubation times up to 48 h to examine whether drugs could block cell proliferation at late stages (Figures S9–S13).
Figure S8. Heatmap of relative inhibition of cell proliferation (as indicated by staining of CellTraceTM Violet) after treatment of cancer cell lines with different drugs. Data presented as an average of 3 independent experiments. Cells were stained on day 0 with CellTraceTM Violet (1 µM) and mean fluorescence intensities were determined on the 5L LSR after 24 h of treatment with the different drugs.
(1 picture or pasted object on this page, not shown here) […]
Cell culture. MCF-7, A549, LnCap, MDA-MB-231, Jurkat T cells and PC3 cells were obtained from American Type Culture Collection (ATCC). HT29 cells were purchased from Merck (S i g m a Aldrich, UK). Mouse Mammary Tumour Virus –Polyoma Middle T antigen (MMTV -PyMT) cells were provided by the lab of Mikala Egeblad (CSHL, US). MMTV-PyMT, MCF-7, LnCap, MDA-MB-231 and Jurkat T cells were cultured in Roswell Park Memorial Institute (RPMI) 1640 Medium supplemented with 10% fetal bovine serum (FBS) , 100 U mL-1 penicillin and 0.1 mg mL-1 streptomycin. A549 and PC3 cells were cultured in Dublecco’s modified Eagle’s medium (DMEM) supplemented with 10% fetal bovine serum (FBS), 100 U mL-1 penicillin and 0.1 mg […]
Flow cytometry drug screen.

[1] = test system: breast cancer cells (MMTV-PyMT, MDA-MB231, MCF7); assay: Dose-dependency study with Apotracker Red and CellTrace Violet; assay type: cell-based, mouse and human; details: 1 to 100 µM
Description: as §1, with “S8). […] From this screen, we decided to select 5 drugs with potent pro‐apoptotic response in breast cancer, the most diagnosed cancer worldwide.[25] […] From group 2, we selected cyclophosphamide, tamoxifen, and 5‐fluorouracil as pro‐apoptotic molecules.” for “S8).”
Figure 4 Apotracker Red detects dose‐dependent chemotherapeutic‐induced apoptosis in mouse and human breast cancer cell lines. Cells were plated with 1 μM CV, treated with increasing concentrations (0, 1, 3, 10, 30 and 100 μM) of selected drugs for 48 h, and stained with Apotracker Red (150 nM) before data acquisition. Drugs: tamoxifen (beige), cisplatin (black), 5‐fluorouracil (green), gemcitabine (pink) and cyclophosphamide (red). Data presented as mean±SEM of 3 independent experiments.
Figure S9. Flow cytometry analysis of cisplatin in different breast cancer cell lines.
Representative flow cytometric plots (from three independent experiments) of MMTV-PyMT cells (a), MDA-MB231 cells (b) and MCF7 cells (c) after treatment with increasing concentrations of cisplatin for 48 h. Cells were stained on day 0 with CellTraceTM Violet (1 µ M) and with Apotracker Red (150 nM) before data acquisition.
(1 picture or pasted object on this page, not shown here)
Edinburgh. Human peripheral blood neutrophils were isolated as previously described.[3] […]
were centrifuged (300 g, 5 min, r.t.), washed once with PBS before addition of 0.05% Trypsin, 0.02% ethylenediaminetetraacetic acid (EDTA) in Hank’s balanced salt solution (HBSS) and incubation at 37°C for 5 min. […] Histograms and mean fluorescence intensities of […]

With N.N.[Cl][Pt][Cl] [cisplatin] the “Drug group by Apotracker Red (apoptosis) and CV (proliferation) staining” value (8 cancer cell lines) was “induced apoptosis and decreased cell proliferation”, the “Percentages of Apotracker Red staining, dose-dependency study” value ([1]; 48 h, Apotracker Red 150 nM, 3 independent experiments) was “highest percentages of Apotracker Red staining across all breast cancer cells” and the “Ratios of proliferation blockage, dose-dependency study” value ([1]; up to 48 h, CellTrace Violet 1 µM) was “highest ratios of proliferation blockage”.
